From patent US20020122768A1, “Stable radiopharmaceutical compositions and methods for preparation thereof” (priority 2000, published 2002) come the findings set out here.

Marks after values point to notes of the source that are not given here.

Format in all cases: physicochemical
The nature of series [1]: Solution stability of ^90Y-A at room temperature, RCP by radio-HPLC. As to conditions: room temperature; for RCP (%) t = 0 h / RCP (%) t = 24 h / RCP (%) t = 48 h / RCP (%) t = 120 h / RCP (%) t = 144 h / RCP (%) t = 72 h / RCP (%) t = 148 h: ^90Y-A (~20 mCi); for RCP (%) change: ^90Y-A, t = 0 h to last time point. How it is done:
The advantage of using HPLC is that radio-impurities caused by radiolytic degradation can be separated from the radiopharmaceutical under optimized chromatographic conditions.
The initial RCP of a radiopharmaceutical is largely dependent on radiolabeling conditions such as pH, heating temperature and time. Once a radiopharmaceutical is prepared in high yield, the stability of the radiopharmaceutical composition is measured by the` RCP change of the radiopharmaceutical over a certain period of time.
Analytical Methods. HPLC method 1 used a HP-1100 HPLC system with a UV/visible detector (λ=220 nm), an IN-US radio-detector, and a Zorbax C18 column (4.6 mm×250 mm, 80 Å pore size).
The ITLC method used Gelman Sciences silica-gel ITLC paper strips and 1:1 mixture of acetone and saline as eluant.
(§1) The reaction mixture was heated at 100° C. for 10 min. A sample of the resulting solution was first diluted 20-fold with 2 mM DTPA solution (pH=5), and was then analyzed by HPLC (Method 1, injection volume=1-2 μL) and ITLC. […] The resulting solution was kept at room temperature for 6 days.
as §1, §1
The reaction mixture was heated at 100° C. for 10 min. A sample of the resulting solution was first diluted 20-fold with 2 mM DTPA solution (pH=5), and was then analyzed by HPLC (Method 1, injection volume 1-2 μL) and ITLC. […] The resulting solution was kept at room temperature for 7 days.
(§2) The reaction mixture was heated at 100° C. for 10 min. A sample of the resulting solution was first diluted 20-fold with 2 mM DTPA solution (pH=5), and was then analyzed by HPLC (Method 1, injection volume=1-2 μL) and ITLC. […] The resulting solution was kept at room temperature for 7 days.
as §2, §2

Series [2] can be described thus: Solution stability of ^90Y-A at −78° C., RCP by radio-HPLC. Conditions: for RCP (%) change: t = 0 h to 72 h. How it is done: (§3) The integrity of a radiopharmaceutical is measured by the radiochemical purity (RCP) of the radiolabeled compound using ITLC or more preferably HPLC. The advantage of using HPLC is that radio-impurities caused by radiolytic degradation can be separated from the radiopharmaceutical under optimized chromatographic conditions. […] The radiopharmaceutical compositions of this invention are effective in maintaining the long-term stability of samples that have been frozen, thawed, and re-tested periodically for 7 days.
(§4) The initial RCP of a radiopharmaceutical is largely dependent on radiolabeling conditions such as pH, heating temperature and time. Once a radiopharmaceutical is prepared in high yield, the stability of the radiopharmaceutical composition is measured by the` RCP change of the radiopharmaceutical over a certain period of time. For comparison purposes, sodium gentisate or sodium ascorbate was often used as the reference since they have been used in various radiopharmaceutical formulations.
Analytical Methods. HPLC method 1 used a HP-1100 HPLC system with a UV/visible detector (λ=220 nm), an IN-US radio-detector, and a Zorbax C18 column (4.6 mm×250 mm, 80 Å pore size). The flow rate was 1 mL/min with the mobile phase being isocratic from 0 to 18 min using 87% solvent A (0.025 M ammonium acetate buffer, pH 6.8) and 13% solvent B (acetonitrile), followed by an isocratic wash using 40% of solvent A and 60% solvent B from 19 to 25 min.
The ITLC method used Gelman Sciences silica-gel ITLC paper strips and 1:1 mixture of acetone and saline as eluant. By this method, the radiolabeled compounds migrate to the solvent front while [^90Y]/^177Lu]colloid and [^90Y]/^177Lu]acetate remain at the origin.
^90Y-A was prepared using the procedure described in example 4. The resulting solution was the kept in a dry-ice box (−78° C.) for 3 days. Samples were analyzed at t=0, 24, 48, and 72 h.
To a lead-shielded clean 5 mL vial containing 100 μg of COMPOUND A and 2 mg of 3,4,5-trihydroxybenzoic acid (3,4,5-THBA) dissolved in 0.5 mL of 0.5 M ammonium acetate buffer (pH=8.0) was added 20 μL Of ^90YCl3 solution (˜20 mCi) in 0.05 N HCl. The reaction mixture was heated at 100° C. for 5 min. After cooling to room temperature, 0.5 mL of 3,4,5-THBA solution (20 mg/mL) in 0.5 M ammonium acetate buffer (pH=8.0) was added to the solution above. A sample of the resulting mixture was then diluted 20-fold with GA solution (10 mg/mL, pH=7.4), and analyzed by HPLC (Method 1, injection volume=1 μL) and ITLC. […] The resulting mixture was kept at −78° C. for 3 days. Samples were analyzed at t=0, 1, 2, and 3 days.
Synthesis of ^90Y-A was carried out according to the procedure described in example 12. After cooling to room temperature, 0.5 mL of 2,3,4-THBA solution (20 mg/mL) in 0.5 M ammonium acetate buffer (pH=8.0) was added to the solution containing ^90Y-A. The resulting mixture was kept at -78 °C for 3 days. Samples were analyzed at t=0, 1, 2, and 3 days.
Synthesis of ^90Y-A was carried out according to the procedure described in example 12. After cooling to room temperature, 0.5 mL of DSA solution (20 mg/mL) in 0.5 M ammonium acetate buffer (pH=8.0) was added to the solution containing ^90Y-A. The resulting mixture was kept at −78° C. for 3 days. Samples were analyzed at t=0, 1, 2, and 3 days.
Synthesis of ^90Y-A was carried out according to the procedure described in example 12. After cooling to room temperature, 0.5 mL of HABA solution (20 mg/mL) in 0.5 M ammonium acetate buffer (pH=8.0) was added to the solution containing ^90Y-A. The resulting mixture was kept at −78° C. for 3 days. Samples were analyzed at t=0, 1, 2, and 3 days. […]
To a lead-shielded clean 30 mL vial containing 1000 μg of COMPOUND A and 100 mg of sodium gentisate (GA) dissolved in 5 mL of 0.5 M ammonium acetate buffer (pH=7.5) was added ˜250 μL of ^90YCl3 solution (˜200 mCi) in 0.05 N HCl. The reaction mixture was heated at 100° C. for 15 min. […]

Series [3] can be described thus: Solution stability of ^90Y-B at −78° C., RCP by radio-HPLC. As to conditions: ^90Y-B prepared with GA. The method, then:
as §3, §4
HPLC method 2 used a HP-1100 HPLC system with a UV/visible detector (λ=220 nm), an IN-US radio-detector, and a Zorbax C18 column (4.6 mm×250 mm, 80 Å pore size). The flow rate was 1 mL/min with a gradient mobile phase starting from 92% solvent A (0.025 M ammonium acetate buffer, pH 6.8) and 8% solvent B (acetonitrile) at 0 min to 90% solvent A and 10% solvent B at 18 min, followed by an isocratic wash using 40% of solvent A and 60% solvent B from 19 to 25 min.
The ITLC method used Gelman Sciences silica-gel ITLC paper strips and 1:1 mixture of acetone and saline as eluant. By this method, the radiolabeled compounds migrate to the solvent front while [^90Y]/^177Lu]colloid and [^90Y]/^177Lu]acetate remain at the origin. […]
The 0.5 M ammonium acetate buffer (pH 8.0) was first degassed under vacuum for 1-2 min. COMPOUND B and gentisic acid (sodium salt, GA) were dissolved in the degassed buffer to give a concentration of 100 μg/mL for COMPOUND B and 20 mg/mL for GA. The resulting solution was immediately degassed under vacuum for another 1-2 min. To a clean sealed 5 mL vial was added 1.0 mL of the degassed 0.5 M ammonium acetate buffer (pH 8.0) containing 100 μg COMPOUND B and 10 mg GA. The solution was degassed again under vacuum. Upon addition of ˜20 μL of ^90YCl3 solution (˜20 mCi) in 0.05 N HCl, the reaction mixture was heated at 100° C. for 5 min. After cooling to room temperature, a sample of the resulting solution was diluted 20-fold with saline containing gentisate (10 mg/mL), and was then analyzed by HPLC (Method 2, injection volume=1-2 μL) and ITLC. […] To the solution above was added 0.5 mL of sodium ascorbate solution (40 mg/mL in 0.5 M ammonium acetate buffer, pH=7.4). The resulting mixture was then kept in a dry-ice box (−78° C.) for 7 days. Samples were analyzed at t=0, 3 and 7 days.
The 0.5 M ammonium acetate buffer (pH 8.0) was first degassed under vacuum for 1-2 min. COMPOUND B and gentisic acid (sodium salt, GA) were dissolved in the degassed buffer to give a concentration of 100 μg/mL for COMPOUND B and 20 mg/mL for GA. The resulting solution was immediately degassed under vacuum for another 1-2 min. To a clean sealed 5 mL vial was added 1.0 mL of the degassed 0.5 M ammonium acetate buffer (pH 8.0) containing 100 μg COMPOUND B and 10 mg GA. The solution was degassed again under vacuum. Upon addition of ˜20 μL of ^90YCl3 solution (˜20 mCi) in 0.05 N HCl, the reaction mixture was heated at 100° C. for 5 min. After cooling to room temperature, a sample of the resulting solution was diluted 20-fold with saline containing gentisate (10 mg/mL), and was then analyzed by HPLC (Method 2, injection volume=1-2 μL) and ITLC. […] To the solution above was added 0.5 mL of 2,3,4-trihydroxybenzoic acid solution (20 mg/mL in 0.5 M ammonium acetate buffer, pH=6.5). The resulting mixture was then kept in a dry-ice box (−78° C.) for 7 days. Samples were analyzed at t=0, 3 and 7 days. […]

The mark [4] stands for this setting: ^90Y-A, 10 mg stabilizer, dry-ice box (−78° C.).
Where [5] appears, read: ^90Y-A, 10 mg stabilizer, −78° C.
Setting [6] is: ^90Y-A prepared using 2 mg 3,4,5-THBA, second stabilizer (0.5 mL of 20 mg/mL) added after radiolabeling, −78° C.
Setting [7] is: degassed, second stabilizer (20 mg AA, 20 mg DSA, 10 mg 2,3,4-THBA, 10 mg HABA) added post-labeling.

Turning to `O=Cc1cc(O)c(O)c(O)c1` [3,4,5-THBAD, 3,4,5-trihydroxybenzaldehyde], in series [1] (2 mg stabilizer), the “RCP (%) t = 0 h” value amounted to 95.5%, the “RCP (%) t = 24 h” value is given as 92.8%, the “RCP (%) t = 48 h” value was 87.4% and the “RCP (%) t = 120 h” value is 84.9%. Besides, the “RCP (%) t = 144 h” value in series [1] (2 mg stabilizer) came to 80.7%. Further, in series [1] (10 mg stabilizer), the “RCP (%) t = 0 h” value is 88.1* %, the “RCP (%) t = 24 h” value is given as 82.3%, the “RCP (%) t = 72 h” value turned out to be 77.3% and the “RCP (%) t = 148 h” value is given as 68.4%. Moreover, the “RCP (%) change” value in series [1] (10 mg stabilizer) is recorded as 19.7%. In series [2] (setting [4]), the “RCP (%) t = 0 h” value worked out at 88.2%, the “RCP (%) t = 24 h” value came to 86.4%, the “RCP (%) t = 48 h” value is recorded as 87.3% and the “RCP (%) t = 72 h” value is reported as 87.4%. In series [2] (setting [5]), the “RCP (%) change” value came out at 0.8%.
Turning to `O=C([O-])c1cc(O)ccc1O.[Na+]` [GA, sodium gentisate, reference compound], in series [1] (2 mg stabilizer), the “RCP (%) t = 0 h” value is listed as 94.6%, the “RCP (%) t = 24 h” value was 84.5%, the “RCP (%) t = 48 h” value was determined as 80.7% and the “RCP (%) t = 120 h” value came to 71.2%. Moreover, the “RCP (%) t = 144 h” value in series [1] (2 mg stabilizer) is 69.7%. Further, in series [1] (10 mg stabilizer), the “RCP (%) t = 0 h” value turned out to be 96.3%, the “RCP (%) t = 24 h” value was determined as 92.6%, the “RCP (%) t = 72 h” value was 83.8% and the “RCP (%) t = 148 h” value was 77.3%. In addition, in series [1] (10 mg stabilizer), the “RCP (%) change” value is listed as 19%. In series [2] (setting [4]), the “RCP (%) t = 0 h” value is listed as 96.4%, the “RCP (%) t = 24 h” value is 96.7%, the “RCP (%) t = 48 h” value is recorded as 95.4% and the “RCP (%) t = 72 h” value is listed as 94.6%. In addition, in series [2] (setting [5]), the “RCP (%) change” value stood at 1.8%.
For `Nc1ccc(C(=O)O)cc1O` [HABA, 3-hydroxy-4-aminobenzoic acid], in series [2] (setting [6]), the “RCP (%) t = 0 h” value came to 98.5%, the “RCP (%) t = 24 h” value amounted to 98.3%, the “RCP (%) t = 48 h” value was 98.7% and the “RCP (%) t = 72 h” value stood at 98.1%. In series [2] (^90Y-A prepared using 2 mg 3,4,5-THBA, second stabilizer added after radiolabeling, −78° C.), the “RCP (%) change” value was 0.4%. In series [3] (setting [7]), the “RCP (%) t = 0” value is given as 94.8%, the “RCP (%) t = 3 days” value came out at 94.5% and the “RCP (%) t = 7 days” value is 94.0%. In series [3] (second stabilizer added post-labeling, t = 0 to 7 days), the “RCP (%) change” value amounted to 0.8%.
